Where a name gives a salt, the structure may show the parent alone.

sigma-receptor, sequence (Q60492 whole entry): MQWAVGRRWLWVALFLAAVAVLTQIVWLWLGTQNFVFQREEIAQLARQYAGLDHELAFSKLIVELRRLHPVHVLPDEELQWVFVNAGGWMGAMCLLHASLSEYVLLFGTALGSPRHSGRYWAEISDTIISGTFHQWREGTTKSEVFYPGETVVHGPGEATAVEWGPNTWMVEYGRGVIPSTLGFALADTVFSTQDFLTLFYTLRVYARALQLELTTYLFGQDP

The assay addresses sigma-receptor (Cavia porcellus, UniProt Q60492). Nature of the assay: Sigma-receptor binding ([3H]3-PPP displacement, membranes of guinea pig total brain). The settings on record: 2 nM (+)[3H]3-PPP, guinea pig total brain membrane, 90 min at 25° C., pH 8.5 TRIS.HCl, eleven concentrations; read-out: IC50 (inhibitory concentration 50%).
For the compound `O=C(CCCN1CCC(Cc2ccc(F)cc2)CC1)c1ccc(F)cc1` [Example 5, 4-p-Fluorobenzyl-1-(4-p-fluorophenyl-4-oxo)butylpiperidine hydrochloride], the IC50 came to 2.4 nM. The figure for `O=C1CC2(CCCC2)CC(=O)N1CCCCN1CCC(Cc2ccc(F)cc2)CC1` [Example 10, 8-[4-[4-(p-Fluorobenzyl)-1-piperidinyl]butyl]-8-azaspiro[4,5] decane-7,9-dione hydrochloride] is 1.89 nM.

On to `Fc1ccc(CC2CCN(CCCC(c3ccc(F)cc3)c3ccc(F)cc3)CC2)cc1` [Example 9, 4-(p-Fluorobenzyl)-1-[4,4-bis(p-fluorophenyl)butyl]piperidine tribenzoate], for which the IC50 is 72 nM. The figure for `CCCN1CCC(Cc2ccc(F)cc2)CC1` [Example 1, 4-p-Fluorobenzyl-1-propylpiperidine hydrochloride] is 2.95 nM; for `OC(CCCN1CCC(Cc2ccccc2)CC1)c1ccc(F)cc1` (centres unmarked) [Example 6, 4-Benzyl-1-(4-hydroxi-4-p-fluorophenyl)butylpiperidine hydrochloride] it is 1.49 nM; for `Fc1ccc(CC2CCN(CCCOc3ccc(F)cc3)CC2)cc1` [Example 11, 4-(p-Fluorobenzyl)-1-[3-(p-fluorophenoxy)propyl]piperidine hydrochloride] it is 4.2 nM. The figure for `OC(CCCN1CCC(Cc2ccc(F)cc2)CC1)c1ccc(F)cc1` (centres unmarked) [Example 7, 4-(p-Fluorobenzyl)-1-(4-fluorophenyl-4-hydroxy)butylpiperidine hydrochloride] is 8.8 nM; for `Fc1ccc(CC2CCN(CCCOc3ccc(F)cc3)CC2)cc1` [Example 8, 4-(p-Fluorobenzyl)-1-[3-(p-fluorophenoxy)propyl]piperidine dibenzoate] it is 4.5 nM.

The values above are taken from patent US5395841A, “4-benzylpiperidines for treating phychosis” (Ferrer Internacional, S.A., priority 1992, dated 1995).
